Experiment [1] has as its target T1, Src (p60^c-src, partially purified) (Homo sapiens, UniProt P12931).
T1 construct: purchased Upstate (UBI)
As to the kind of experiment: SRC-Inhibitor-Assay (time-resolved fluorescence), Src enzyme. Type of experiment: biochemical. Particulars: ATP 5 μM, peptide 10 μM, enzyme 2.5 U/ml, pre-incubation 15 min at 15° C. The protocol: (§1) The activity of the compounds according to this invention as inhibitors for the src-family tyrosine kinases was shown by using the following assay.
(§2) SRC-Inhibitor-Assay Parameters:
(§3) • Reaction mixture: • ATP 5 μM • Peptide (R+Ja133-Ro): 10 μM • Ja133-Ro 196 nM • Ro 9.8 μM • PT66 230 ng/ml • Assay buffer: 4 mM MgCl2 • 2 mM TCEP • 50 mM HEPES • 0,1% Tween 20 • pH 7.3 • Enzyme: 2.5 U/ml • Inhibitor: max. 25 μM • min. 0.42 nM Material: • Eu-labelled phosphotyrosine antibody: -for Lck Cisbio Mab PT66-K, • for Src EG&G Wallac PT66 Eu-W1024 (all commercially available). • Peptides: Ro: NH2-A-E-E-E-I-Y-G-E-F-E-A-K-K-K-K-CONH2 (SEQ ID NO: 1), and • Ja133-Ro: Ja133-G-Aminocaprylic acid-A-E-E-E-I-Y-G-E-F-E-A-K-K-K-K-CONH2 (SEQ ID NO: 2), wherein Ja133 is LightCycler-Red 640-N-hydroxy succinimide ester; • whereby both peptides were synthesized by an optimized solid phase peptide synthesis protocol (Merrifield, Fed. Proc. Fed. Amer. Soc. Exp. Biol. 21 (1962) 412) on a Zinsser SMP350 peptide synthesizer. Shortly, the peptide was assembled on 160 mg (22.8 μmol scale) of a Rink-Linker modified polystyrene solid phase by repeatedly conjugating an twenty fold excess of aminoacids each protected by temporary piperidine labile Fmoc- and permanent acid labile tert-Bu-, BOC- and Otert-Bu-groups depending on the side chain function. The substrate sequence AEEEIYGEFEAKKKK (SEQ ID NO: 1) was N-terminal additionally mounted with the spacer amino acids Aminocaprylic acid and Glycin. After cleavage of the N-terminal temporary protecting group the still attached and protected peptide was labeled with a 1.5 fold amount of LightCycler-Red 640-N-hydroxy succinimide ester (purchased by Roche Diagnostics GmbH) and triethylamine. After 3 hrs. the resin was washed with Dimethylformamide and Isopropanol until the eluates of the blue resin got colo-rless. […] The substrate was finally isolated by a preparative reverse phase HPLC purification. The purification yielded 12.2 mg RP-HPLC single peak pure blue material (lyophilisate). The identity was proven by MALDI mass spectroscopy [2720.0]. • Enzymes: Upstate Lck (p56^lck, active), Upstate Src (p60^c-src, partially purified) were purchased from UBI. • Time-resolved Fluorescence Assay: Reader: Perkin Elmer, Wallac Viktor 1420-040 multilabel counter; Liquid handling system: Beckman Coulter, Biomek 2000. ATP, Tween 20, HEPES were purchased from Roche Molecular Biochemicals, MgCl2 and MnCl2 were purchased from Merck Eurolab, TCEP was purchased from Pierce, 384 Well low volume fluorescence plates was purchased from Falcon. Assay Description:
(§4) At first the enzyme is pre-incubated for 15 min. at 15° C. in aqueous solution with corresponding amounts of inhibitors according to this invention. Then the phosphorylation reaction is started by adding a reaction mixture, containing ATP, Peptide and PT66, and subsequent shaking. The proceeding of this reaction is immediately monitored using time resolved fluorescence spectroscopy in a suitable well plate reader.
(§5) The IC50-values can be obtained from the reaction rates by using a non-linear curve fit (Excelfit).

A further experiment deals with T2, Lck (p56^lck, active) (Homo sapiens, UniProt P06239).
T2 construct: purchased Upstate (UBI)
T2 sequence (P06239 whole entry, species assumed): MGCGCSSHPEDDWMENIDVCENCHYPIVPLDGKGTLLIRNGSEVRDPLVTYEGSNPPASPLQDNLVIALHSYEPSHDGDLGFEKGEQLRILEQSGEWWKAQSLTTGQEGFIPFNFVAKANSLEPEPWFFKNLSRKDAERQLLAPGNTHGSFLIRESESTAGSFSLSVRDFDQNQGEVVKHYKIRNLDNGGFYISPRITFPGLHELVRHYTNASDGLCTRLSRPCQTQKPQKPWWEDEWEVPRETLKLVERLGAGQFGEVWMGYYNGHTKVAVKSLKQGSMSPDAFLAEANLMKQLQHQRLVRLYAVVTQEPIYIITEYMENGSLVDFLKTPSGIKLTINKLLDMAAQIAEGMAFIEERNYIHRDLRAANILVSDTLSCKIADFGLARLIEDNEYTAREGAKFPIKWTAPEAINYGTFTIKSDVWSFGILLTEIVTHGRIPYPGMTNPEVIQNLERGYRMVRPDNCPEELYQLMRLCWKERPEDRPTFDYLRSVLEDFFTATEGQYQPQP
Nature of the experiment: SRC-Inhibitor-Assay (time-resolved fluorescence), Lck enzyme. Type of experiment: biochemical. Particulars: ATP 5 μM, peptide 10 μM, enzyme 2.5 U/ml, pre-incubation 15 min at 15° C. As for the experimental part:
as §1, §2, §3, §4, §5

T1 sequence (P12931 whole entry, species assumed): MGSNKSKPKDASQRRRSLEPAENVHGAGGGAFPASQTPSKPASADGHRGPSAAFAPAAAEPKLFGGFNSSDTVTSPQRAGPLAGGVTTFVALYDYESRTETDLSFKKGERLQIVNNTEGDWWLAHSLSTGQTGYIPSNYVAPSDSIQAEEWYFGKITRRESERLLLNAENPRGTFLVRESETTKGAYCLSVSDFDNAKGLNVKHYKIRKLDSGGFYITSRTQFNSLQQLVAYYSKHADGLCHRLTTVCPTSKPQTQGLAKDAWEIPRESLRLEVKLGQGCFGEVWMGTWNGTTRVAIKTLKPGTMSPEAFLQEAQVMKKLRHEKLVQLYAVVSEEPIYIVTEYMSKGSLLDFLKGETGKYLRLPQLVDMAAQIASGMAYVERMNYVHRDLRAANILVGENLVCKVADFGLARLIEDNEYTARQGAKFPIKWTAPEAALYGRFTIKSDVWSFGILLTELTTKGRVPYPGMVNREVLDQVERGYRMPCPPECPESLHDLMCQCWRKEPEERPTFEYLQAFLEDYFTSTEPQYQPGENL

The term IC50 denotes the concentration that inhibits the measured activity by half. Turning to `O=C(NC1CCNCC1)c1nc2nc(Nc3ccc(N4CCOCC4)cc3)ncc2cc1-c1ccccc1Br` [Example 1, 6-(2-Bromo-phenyl)-2-(4-morpholin-4-yl-phenylamino)-pyrido[2,3-d]pyrimidine-7-carboxylic acid piperidin-4-ylamide], the IC50 in experiment [1] came out at 10.7 nM; against Lck (p56^lck, active), 60.1 nM.
`CS(=O)(=O)c1cccc(Nc2ncc3cc(-c4ccccc4Br)c(C#N)nc3n2)c1` [Example 2, 6-(2-Bromo-phenyl)-2-(3-methanesulfonyl-phenylamino)-pyrido[2,3-d]pyrimidine-7-carbonitrile]: the IC50 worked out at 33 nM in experiment [1] and 159 nM on Lck (p56^lck, active).
For `NC(=O)c1nc2nc(Nc3ccc(N4CCOCC4)cc3)ncc2cc1-c1ccccc1Br` [Example 3-1, 6-(2-Bromo-phenyl)-2-(4-morpholin-4-yl-phenylamino)-pyrido[2,3-d]pyrimidine-7-carboxylic acid amide] the same measures were 3 nM and 23 nM.
As for `CCN(CC)CCOc1ccc(Nc2ncc3cc(-c4ccccc4Br)c(C(N)=O)nc3n2)cc1` [Example 3-2, 6-(2-Bromo-phenyl)-2-[4-(2-diethylamino-ethoxy)-phenylamino]-pyrido[2,3-d]pyrimidine-7-carboxylic acid amide], the IC50 stood at 4.4 nM in experiment [1] and 12.5 nM against Lck (p56^lck, active).
For the compound `CSc1cccc(Nc2ncc3cc(-c4ccccc4Br)c(C(N)=O)nc3n2)c1` [Example 3-3, 6-(2-Bromo-phenyl)-2-(3-methylsulfanyl-phenylamino)-pyrido[2,3-d]pyrimidine-7-carboxylic acid amide], the IC50 in experiment [1] is 7.8 nM.
For the compound `NC(=O)c1nc2nc(Nc3ccc(S(N)(=O)=O)cc3)ncc2cc1-c1ccccc1Br` [Example 3-4, 6-(2-Bromo-phenyl)-2-(4-sulfamoyl-phenylamino)-pyrido[2,3-d]pyrimidine-7-carboxylic acid amide], the IC50 in experiment [1] worked out at 6.9 nM; on Lck (p56^lck, active), 73.8 nM.
For `CNS(=O)(=O)Cc1cccc(Nc2ncc3cc(-c4ccccc4Br)c(C(N)=O)nc3n2)c1` [Example 3-5, 6-(2-Bromo-phenyl)-2-(3-methylsulfamoylmethyl-phenylamino)-pyrido[2,3-d]pyrimidine-7-carboxylic acid amide] the same measures were 35.7 nM and 110 nM.
For the compound `NC(=O)c1nc2nc(Nc3cccc(S(=O)(=O)CCO)c3)ncc2cc1-c1ccccc1Br` [Example 3-6, 6-(2-Bromo-phenyl)-2-[3-(2-hydroxy-ethanesulfonyl)-phenylamino]-pyrido[2,3-d]pyrimidine-7-carboxylic acid amide], the IC50 was found to be 22.5 nM in experiment [1] and 145 nM on Lck (p56^lck, active).
`CS(=O)(=O)c1cccc(Nc2ncc3cc(-c4ccccc4Br)c(C(N)=O)nc3n2)c1` [Example 3-7, 6-(2-Bromo-phenyl)-2-(3-methanesulfonyl-phenylamino)-pyrido[2,3-d]pyrimidine-7-carboxylic acid amide]: the IC50 in experiment [1] was found to be 16.6 nM; against Lck (p56^lck, active) it was 113 nM.
For `CSc1cccc(Nc2ncc3cc(-c4ccccc4Br)c(C(=O)NCCN(C)C)nc3n2)c1` [Example 3-8, 6-(2-Bromo-phenyl)-2-(3-methylsulfanyl-phenylamino)-pyrido[2,3-d]pyrimidine-7-carboxylic acid (2-dimethylamino-ethyl)-amide], the IC50 amounted to 1.7 nM in experiment [1] and 32.3 nM against Lck (p56^lck, active).
Taken in the same sequence, the figures for `CN(C)CCNC(=O)c1nc2nc(Nc3ccc(N4CCOCC4)cc3)ncc2cc1-c1ccccc1Br` [Example 3-9, 6-(2-Bromo-phenyl)-2-(4-morpholin-4-yl-phenylamino)-pyrido[2,3-d]pyrimidine-7-carboxylic acid (2-dimethylamino-ethyl)-amide] were 0.9 nM and 12.1 nM.
For `CCN(CC)CCOc1ccc(Nc2ncc3cc(-c4ccccc4Br)c(C(=O)NCCN(C)C)nc3n2)cc1` [Example 3-10, 6-(2-Bromo-phenyl)-2-[4-(2-diethylamino-ethoxy)-phenylamino]-pyrido[2,3-d]pyrimidine-7-carboxylic acid (2-dimethylamino-ethyl)-amide] the same measures were 1.6 nM and 3.7 nM.
